For series [1], the system named is IPNV. Description: IPNV viral load (VP2 qRT-PCR) in MLN4924-treated SHK-1 cells. Type of series: cell-based, infectious pancreatic necrosis virus. The settings on record: 100 nM MLN4924 24 hours prior to infection, during the course of infection, vs DMSO only. Here is the method:
To evaluate the viral load in cells, relative transcript level of IPNV VP2 to ef1a in the total RNAs was analysed by qRT-PCR using Luna Universal One-Step RT-qPCR reagent (NEB, Ipswich, USA) and LightCycler 480 Instrument (Roche, Basel, Switzerland) in duplicates. Each reaction consisted of 0.5 μL RNAs, 1× Reaction Mix, 1× Enzyme Mix, 0.4 μM each primer (Supplementary Table 4) and nuclease-free water up to 10 μL. The thermocycling initiated with reverse transcription at 55° C. for 10 min and initial denaturation at 95° C. for 1 min, followed by 40 cycles of denaturation at 95° C. for 10 sec and extension at 60° C. for 30 sec with plate read, and melt curve analysis. Efficiency and linearity (R^2) of each primer pair were checked using serial dilution of total RNAs in duplicates. The relative viral transcript level of IPNV VP2 versus ef1a in the KO SHK-1 cells compared to wild type SHK-1 cells at each timepoint was calculated using 2^−ΔΔCT.
Lyophilised MLN4924 (pevonedistat) was resuspended in DMSO. MLN4924 was titrated for cytotoxicity on CHSE-214 and SHK-1 cells. […] The impact of the MLN4924 on cell viability was assessed by sampling at 24, 48, 72, and 96 hpi and comparing cell survival in all challenged groups (including the DMSO control) versus the unchallenged control at the same timepoint.
In general terms: In qPCR the cycle at which signal appears reflects the starting amount.

The next series deals with IPNV viral proteins. Description: Western blot of IPNV viral proteins from MLN4924-treated SHK-1 cells. Type of series: cell-based, infectious pancreatic necrosis virus. The settings on record: SHK-1 cells treated with MLN4924 or DMSO, 120 h, MOI 0.01. Here is the method:
To evaluate the infectivity of viral output, cells and supernatant were harvested at 120 hpi and assessed by TCID50 on naïve CHSE-214 cells. For semi-quantification of viral protein output, western blot against viral proteins was performed. At 120 hpi, supernatant from a 150 mm dishes containing SHK-1 cells treated with either 100 nM MLN4924 or DMSO for 24 hours before infection with IPNV at an MOI of 0.01 was collected, sterile filtered, and ultra-centrifuged at 22000 x g for 1 hour. The ultra-centrifuged virus pellet from the supernatant was resuspended in Laemmli buffer. The cell-associated virus was also analysed by harvesting cells in Laemmli buffer. These samples were separated by PAGE (4-15% Mini-Protean, BIORAD), transferred onto nitrocellulose membrane, and the viral protein was visualised using a monoclonal antibody that recognises all IPN viral proteins, and secondary LICOR antibodies.
A general note: A western blot detects proteins with antibodies after separation by electrophoresis.

For the next series, the system named is SHK-1 cells. Description: MLN4924 cell viability in SHK-1 cells. The series is classed as cell-based, Atlantic salmon. The conditions noted are these: MLN4924 treatment compared to DMSO-treated controls. The protocol: Lyophilised MLN4924 (pevonedistat) was resuspended in DMSO. MLN4924 was titrated for cytotoxicity on CHSE-214 and SHK-1 cells. SHK-1 or CHSE-214 cells were seeded at 80% confluency and treated with 0 (DMSO only), 100 nM, 1 μM or 5 μM MLN4924 for 24 hours prior to inoculation with IPNV at an MOI of 0.01. The impact of the MLN4924 on cell viability was assessed by sampling at 24, 48, 72, and 96 hpi and comparing cell survival in all challenged groups (including the DMSO control) versus the unchallenged control at the same timepoint.

The test system of the next series is RTG-2 cells. Nature of the series: MLN4924 cytotoxicity test (cell viability assay) in RTG-2 cells. The series is classed as cell-based, rainbow trout (Oncorhynchus mykiss). The conditions noted are these: wild type RTG-2 cells; 0.1, 1 and 5 uM; 24, 48, 72 and 96 hours post treatment. The protocol: Initially, four different concentrations of MLN4924 0 (DMSO-only), 0.1, 1 and 5 uM, were tested in fresh RTG-2 cells to investigate if they exerted toxicity in wild type RTG-2 cells. A cell viability assay was used to assess any present cytopathic effect at four different time points: 24, 48, 72 and 96 hours post treatment with the four different concentrations of the inhibitor.

Series [2] concerns IPNV. Description: Supernatant infectivity assay (TCID50) of MLN4924 and IPNV-treated RTG-2 cells. The series is classed as cell-based, infectious pancreatic necrosis virus. Here is the method: Wild type RTG-2 cells were seeded in 4× quadruplicates in 24-well plates and were allowed to settle for 24 hours. The four quadruplicates were then treated with DMSO-only, 0.1, 1 and 5 uM of MLN4924, respectively. 24 hours after the MLN4924 treatment, the inhibitor inoculum was removed and IPNV in a dose of 10-5 TCID50/mL was inoculated in the cells, along with the four doses of MLN4924. Supernatants were collected at 48 and 72 hpi, and were stored at −80° C. until use.
TCID50 (Median Tissue Culture Infectious Dose) assay was used to assess the titer of the viral supernatants, harvested from the MLN4924 and IPNV-treated cells at 72 hpi. Firstly, 20,000 cells/well were seeded in wells of a 96-well plate (in four rows of 10 wells for each supernatant, for 4 replicates) and were allowed to settle and grow overnight. The following day, the media was removed with a multichannel pipette and replaced with serial 10-fold dilutions (starting from the neat original viral supernatants up to 10^−7 dilution). The latter were prepared in 2% FBS media (with penicillin streptomycin). The seeded cells were inoculated with these serial dilutions (four replicates per virus dilution, 100 uL/96-well). The last two wells of each row were used as controls, meaning that no virus was added there, only media. The 96-well plate was incubated at 15° C. for the duration of the experiment. The Cytopathic Effect (CPE) of the viral infection was assessed using CellTiter-Glo® Luminescent Cell Viability Assay (Promega, Madison, USA), at 30 hpi. The 50% endpoint titer was further calculated using the Reed and Muench method^16.
MLN4924 inhibitor was used to inhibit nae1 activity. Four supernatants of each dose group collected from the MLN4924 and IPNV-treated cells at 72 hpi were tested in two independent TCID50 infectivity assays followed by a cell viability assay at 30 hpi and use of the Reed and Muench method to analyze the cytopathic effect present in the wells.

A further series deals with DNA and RNA viruses. The conditions noted are these: in vitro, multitude of DNA and RNA viruses (ref 15); cited from earlier work.

The structures appear in SMILES notation.

We go through one compound from US20240373829A1, “GENETIC RESISTANCE TO VIRAL DISEASE IN SALMONID FISH” (THE UNIVERSITY COURT OF THE UNIVERSITY OF EDINBURGH, priority 2021, published 2024).

For the compound `NS(=O)(=O)OC[C@@H]1C[C@@H](n2ccc3c(N[C@H]4CCc5ccccc54)ncnc32)C[C@@H]1O` [MLN4924], the “IPNV RNA copy number” value with IPNV [1] is listed as “little difference”. The “abundance of IPNV viral proteins (western blot)” value in the series on IPNV viral proteins was “notable decrease”. The cell viability result in the series with SHK-1 cells is recorded as “no associated decrease in cell viability”. The “cytotoxicity (cell viability assay)” value in the series with RTG-2 cells is “none of the doses were cytotoxic”. Besides, the “productive IPNV viral output (TCID50)” value with IPNV [2] (0.1 μM MLN4924, 72 hpi supernatants) was “effect similar to the DMSO-only cell group”; in the series with IPNV [2] (1 μM MLN4924, 72 hpi supernatants, vs DMSO-only), “marked drop”; in the series on IPNV [2] (5 μM MLN4924, 72 hpi supernatants, vs DMSO-only), “marked drop”. In addition, in the series with DNA and RNA viruses, the anti-viral activity entry is on record as “broad-acting anti-viral activity”.
